Data reported in PMC8667945, “Structure-based virtual screening and biological evaluation of novel small-molecule BTK inhibitors” (Journal of Enzyme Inhibition and Medicinal Chemistry, 2021).

Key:
[1] = target: T1, Bruton tyrosine kinase (BTK) (Homo sapiens, UniProt Q06187); experiment: Z'LYTE biochemical kinase inhibition assay, dose response
[2] = target: T1, Bruton tyrosine kinase (BTK); experiment: Z'LYTE biochemical kinase inhibition assay, single dose (% inhibition at […])

T1 sequence (Q06187 2-659): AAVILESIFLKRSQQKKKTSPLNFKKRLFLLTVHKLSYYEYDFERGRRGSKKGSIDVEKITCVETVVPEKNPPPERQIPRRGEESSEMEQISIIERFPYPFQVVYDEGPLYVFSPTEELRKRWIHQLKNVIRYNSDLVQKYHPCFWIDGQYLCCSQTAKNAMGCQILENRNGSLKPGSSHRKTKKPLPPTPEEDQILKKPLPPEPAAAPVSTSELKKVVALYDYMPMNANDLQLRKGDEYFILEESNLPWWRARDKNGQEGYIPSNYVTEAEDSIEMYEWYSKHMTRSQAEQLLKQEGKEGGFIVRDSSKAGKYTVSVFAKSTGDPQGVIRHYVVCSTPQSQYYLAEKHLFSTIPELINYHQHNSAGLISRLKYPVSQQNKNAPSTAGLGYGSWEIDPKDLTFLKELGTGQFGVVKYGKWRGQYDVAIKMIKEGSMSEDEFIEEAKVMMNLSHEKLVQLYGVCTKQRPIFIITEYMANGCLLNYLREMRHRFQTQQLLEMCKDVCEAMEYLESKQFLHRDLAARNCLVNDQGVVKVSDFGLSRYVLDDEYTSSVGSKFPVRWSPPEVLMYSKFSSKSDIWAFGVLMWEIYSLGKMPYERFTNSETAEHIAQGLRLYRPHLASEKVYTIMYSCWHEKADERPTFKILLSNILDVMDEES

Row | Compound | IC50 [1] | inhibition at 10 µM [2]
1 | O=C(Sc1nc(SC(=O)c2ccccc2)c2cn[nH]c2n1)c1ccccc1 [NSC722944] | 1.6 µM | 
2 | N#CCc1n[nH]c2nc(SCc3ccccc3)nc(Nc3nnc(S)s3)c12 [NSC724520] | 2.1 µM | 
3 | C(=Nc1nc(N2CCOCC2)nc2[nH]ncc12)c1ccco1 [NSC725686] | 0.84 µM | 
4 | COc1ccc(/C=N/Nc2nc(SCc3ccccc3)nc3[nH]ncc23)cc1OC [NSC726558] |  | 59%
5 | C(=Nc1nc(NCc2ccccc2)nc2[nH]ncc12)c1cccs1 [NSC726593] | 5 µM | 
